# Measured values taken from US8481531B2, “Bicyclic heterocyclyl derivatives as FGFR kinase inhibitors for therapeutic use” (Astex Therapeutics Ltd, priority 2009, dated 2013).
# Key:
# VEGFR2 = biological target: T1, VEGFR2 (Homo sapiens, UniProt P35968); assay: VEGFR2 in vitro kinase inhibitory activity assay (TRF); type: biochemical; settings: read-out: VEGFR2 IC50(μM) or % I; for IC50: 0.5 μM ATP, 1 hour
# T1 construct: purchased Upstate
# Description: (§1) FGFR3, VEGFR2 and PDGFR in vitro Kinase Inhibitory Activity Assays
# (§2) Enzymes (from Upstate), prepared at 2× final concentration, were incubated with test compounds, biotinylated Flt3 substrate (biotin-VASSDNEYFYVDF) (Cell Signalling Technology Inc.) and ATP in the appropriate assay buffer (Table 1). The reaction was allowed to proceed for 3 hours (FGFR3), 1 hour (VEGFR2, PDGFR-beta) at room temperature on a plate shaker at 700 rpm before being stopped with 35 mM EDTA, pH 8 (FGFR3, VEGFR2) or 55 mM EDTA, pH 8 (PDGFR-beta). 5× detection mix (50 mM HEPES pH 7.5, 0.1% BSA, 11.34 nM Eu-anti-pY (PY20) (PerkinElmer) 74 nM SA-XL665 (Cisbio) for FGFR3, 50 mM HEPES, pH 7.5, 0.1% BSA, 11.34 nM Eu-anti-pY (PY20), 187.5 nM SA-XL665 for VEGFR2 and 50 mM HEPES, pH 7.5, 0.1% BSA, 11.34 nM Eu-anti-pY (PT66) (PerkinElmer), 375 nM SA-XL665 (Cisbio) for PDGFR-beta) was then added to each well and the plate sealed and incubated at room temperature for one hour on a plate shaker at 700 rpm. The plate was then read on a Packard Fusion plate reader or a BMG Pherastar both in TRF mode.
# FGFR3 = biological target: T2, FGFR3 (Homo sapiens, UniProt P22607); assay: FGFR3 in vitro kinase inhibitory activity assay (TRF); type: biochemical; settings: 8 μM ATP, 3 hours; read-out: FGFR3 IC50(μM) or % I
# T2 construct: purchased Upstate
# T2 sequence (P22607 23-806): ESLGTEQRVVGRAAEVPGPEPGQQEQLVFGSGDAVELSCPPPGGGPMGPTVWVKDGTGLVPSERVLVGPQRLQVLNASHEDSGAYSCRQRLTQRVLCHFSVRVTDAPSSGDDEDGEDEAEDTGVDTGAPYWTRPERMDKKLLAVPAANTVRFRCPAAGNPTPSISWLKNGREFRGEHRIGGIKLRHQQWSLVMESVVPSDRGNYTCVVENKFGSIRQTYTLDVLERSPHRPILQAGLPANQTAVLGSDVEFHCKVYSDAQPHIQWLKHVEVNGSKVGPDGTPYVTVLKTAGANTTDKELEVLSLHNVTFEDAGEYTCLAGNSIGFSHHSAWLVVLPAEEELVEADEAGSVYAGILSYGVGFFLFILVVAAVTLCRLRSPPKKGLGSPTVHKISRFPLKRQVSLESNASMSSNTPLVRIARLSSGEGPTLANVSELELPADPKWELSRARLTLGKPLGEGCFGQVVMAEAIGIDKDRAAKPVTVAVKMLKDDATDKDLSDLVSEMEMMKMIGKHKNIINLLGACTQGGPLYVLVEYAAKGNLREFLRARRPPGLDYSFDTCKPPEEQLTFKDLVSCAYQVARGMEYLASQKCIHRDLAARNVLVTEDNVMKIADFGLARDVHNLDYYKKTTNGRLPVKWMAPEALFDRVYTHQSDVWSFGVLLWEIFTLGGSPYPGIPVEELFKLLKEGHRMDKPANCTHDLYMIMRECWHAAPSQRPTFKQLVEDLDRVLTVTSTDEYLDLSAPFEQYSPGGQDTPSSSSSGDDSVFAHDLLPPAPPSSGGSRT
# Description: as §1, §2
# Ba/F3-TEL-FGFR3 cells = biological target: T3, Ba/F3-TEL-FGFR3 cells (Homo sapiens, UniProt P22607); assay: Ba/F3-TEL-FGFR3 cell proliferation assay (Alamar Blue); type: cell-based; settings: 72 hours; for GI50: read-out: BaF3-TEL-FGFR3 prolif
# T3 construct: fused on or other part: P41212 (Transcription factor ETV6)
# T3 sequence (P22607 whole entry, change not shown, the tested form may be a part): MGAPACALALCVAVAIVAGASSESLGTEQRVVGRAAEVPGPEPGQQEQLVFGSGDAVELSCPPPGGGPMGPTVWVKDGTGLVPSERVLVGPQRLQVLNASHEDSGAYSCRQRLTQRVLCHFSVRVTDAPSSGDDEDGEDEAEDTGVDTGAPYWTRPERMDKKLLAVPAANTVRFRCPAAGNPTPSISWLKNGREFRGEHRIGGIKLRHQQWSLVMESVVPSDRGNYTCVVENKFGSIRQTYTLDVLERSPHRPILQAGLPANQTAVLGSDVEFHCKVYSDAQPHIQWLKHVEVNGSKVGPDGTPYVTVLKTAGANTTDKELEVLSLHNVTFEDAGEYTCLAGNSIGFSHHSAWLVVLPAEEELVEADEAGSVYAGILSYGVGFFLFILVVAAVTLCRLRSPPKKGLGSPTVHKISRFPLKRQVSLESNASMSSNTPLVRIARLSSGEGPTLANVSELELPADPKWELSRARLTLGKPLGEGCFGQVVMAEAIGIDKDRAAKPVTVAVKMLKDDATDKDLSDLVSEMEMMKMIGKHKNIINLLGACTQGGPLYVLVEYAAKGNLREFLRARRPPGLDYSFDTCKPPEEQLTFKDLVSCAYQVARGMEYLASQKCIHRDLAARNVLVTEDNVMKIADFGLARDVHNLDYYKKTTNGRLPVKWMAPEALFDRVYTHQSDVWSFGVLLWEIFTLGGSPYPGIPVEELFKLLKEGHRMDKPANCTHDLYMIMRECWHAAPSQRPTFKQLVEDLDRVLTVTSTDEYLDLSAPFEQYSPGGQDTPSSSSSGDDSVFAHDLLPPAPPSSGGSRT
# Description: (§3) Ba/F3-TEL-FGFR3 & Ba/F3 (WT) Cell Proliferation Assays
# (§4) Stably transfected Ba/F3-TEL-FGFR3 cells were plated out into black 96-well tissue culture plates with clear bottoms in RPMI medium containing 10% FBS and 0.25 mg/ml G418 at a density of 5×10^3 cells/well (200 μl per well). The parental wild-type Ba/F3 cells (DSMZ no.: ACC 300) were plated out into black 96-well tissue culture plates with clear bottoms in RPMI medium containing 10% FBS and 2 ng/ml mouse IL-3 (R&D Systems) at a density of 2.5×10^3 cells/well (200 μl per well). Plates were placed in an incubator overnight before adding the compounds the following day. Dilutions of compounds were made in DMSO starting at 10 mM and were diluted into the wells to give a final DMSO concentration of 0.1% in assay. Compounds were left on the cells for 72 hours before the plates were removed from the incubator and 20 μl of Alamar Blue™ (Biosource) was added to each well. Plates were placed in the incubator for 4-6 hours before reading plates at 535 nm (excitation)/590 nm (emission) on a Fusion plate reader (Packard). Where inhibition is high an IC50 can be determined.
# [1] = system: parental wild-type Ba/F3 cells; assay: Ba/F3 (WT) cell proliferation assay (Alamar Blue); type: cell-based; settings: BaF3, 72 hours, read-out: BaF3 WT prolif; for inhibition at 3 µM / inhibition at 10 µM: Mus musculus; for IC50: with mouse IL-3
# Description: as §3, §4
# T1 sequence (P35968 20-1356): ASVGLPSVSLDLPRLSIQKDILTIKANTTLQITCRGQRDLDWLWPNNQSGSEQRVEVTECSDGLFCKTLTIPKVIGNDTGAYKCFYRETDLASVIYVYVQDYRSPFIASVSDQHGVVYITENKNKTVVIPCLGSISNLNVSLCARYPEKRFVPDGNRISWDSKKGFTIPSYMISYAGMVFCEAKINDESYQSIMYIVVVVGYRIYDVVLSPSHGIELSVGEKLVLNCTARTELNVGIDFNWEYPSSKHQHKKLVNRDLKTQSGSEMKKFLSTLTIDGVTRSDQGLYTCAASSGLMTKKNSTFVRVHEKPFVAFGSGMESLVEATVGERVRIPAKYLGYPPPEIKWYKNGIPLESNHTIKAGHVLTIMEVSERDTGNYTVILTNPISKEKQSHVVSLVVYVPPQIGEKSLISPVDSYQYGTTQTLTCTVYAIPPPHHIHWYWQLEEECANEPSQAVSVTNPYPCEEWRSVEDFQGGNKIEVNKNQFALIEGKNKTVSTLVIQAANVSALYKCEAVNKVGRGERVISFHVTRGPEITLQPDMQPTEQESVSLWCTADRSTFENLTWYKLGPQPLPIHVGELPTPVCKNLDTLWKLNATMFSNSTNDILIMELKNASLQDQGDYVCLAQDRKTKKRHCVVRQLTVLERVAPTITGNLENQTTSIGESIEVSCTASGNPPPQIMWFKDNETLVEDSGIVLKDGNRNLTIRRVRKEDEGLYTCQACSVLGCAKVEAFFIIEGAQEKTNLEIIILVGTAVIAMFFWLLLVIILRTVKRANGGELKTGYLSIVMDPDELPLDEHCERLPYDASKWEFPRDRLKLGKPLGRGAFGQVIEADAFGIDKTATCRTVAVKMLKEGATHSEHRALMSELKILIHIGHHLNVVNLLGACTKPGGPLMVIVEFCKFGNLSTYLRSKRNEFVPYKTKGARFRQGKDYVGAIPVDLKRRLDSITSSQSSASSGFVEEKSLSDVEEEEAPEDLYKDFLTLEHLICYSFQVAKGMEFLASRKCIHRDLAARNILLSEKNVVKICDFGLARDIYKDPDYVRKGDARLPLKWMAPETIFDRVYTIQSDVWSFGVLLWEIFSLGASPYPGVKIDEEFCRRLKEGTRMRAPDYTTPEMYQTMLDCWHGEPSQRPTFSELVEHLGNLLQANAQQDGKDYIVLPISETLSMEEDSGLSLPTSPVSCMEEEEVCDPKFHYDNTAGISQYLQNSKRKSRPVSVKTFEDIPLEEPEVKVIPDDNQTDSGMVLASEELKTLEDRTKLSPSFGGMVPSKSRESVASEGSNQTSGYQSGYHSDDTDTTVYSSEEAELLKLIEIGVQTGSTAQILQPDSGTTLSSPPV
Compound,IC50 (VEGFR2),IC50 (FGFR3),GI50 (Ba/F3-TEL-FGFR3 cells),"inhibition at 1 µM (VEGFR2; 1 h, % I at 1 μM)",BaF3-TEL-FGFR3 prolif (μM) (Ba/F3-TEL-FGFR3 cells; % at 3.00 μM),inhibition at 3 µM [1],inhibition at 10 µM [1],IC50 [1]
"O=C(NCC(F)(F)F)Nc1cccc(-c2cnc3cc(/C(=N/OCCO)C4CC4)ccn23)c1 [Compound 1-32, 1-[3-(7-{Cyclopropyl-[2-hydroxy-ethoxyimino]-methyl}-imidazo[1,2-a]pyridin-3-yl)-phenyl]-3-(2,2,2-trifluoro-ethyl)-urea]",0.96 µM,0.072 µM,1100 nM,,,,50%,
"O=C(NCC(F)(F)F)Nc1cccc(-c2cnc3cc(C=NOCC(O)CN4CCC(O)CC4)ccn23)c1 (stereo not shown) [Compound 1-43, 1-[3-(7-{[2-Hydroxy-3-(4-hydroxy-piperidin-1-yl)-propoxyimino]-methyl}-imidazo[1,2-a]pyridin-3-yl)-phenyl]-3-(2,2,2-trifluoro-ethyl)-urea]",0.52 µM,0.024 µM,6600 nM,,,,0%,
"CON=C(c1ccn2c(-c3cccc(NC(=O)NCC(F)(F)F)c3)cnc2c1)C1CCC1 [Compound 1-27, 1-[3-(7-{Cyclobutyl-methoxyimino-methyl}-imidazo[1,2-a]pyridin-3-yl)-phenyl]-3-(2,2,2-trifluoro-ethyl)-urea]",1.2 µM,0.08 µM,1300 nM,,,,,1500 nM
"O=C(NCC(F)(F)F)Nc1cccc(-c2cnc3cc(C=NOCCCNC4CCOCC4)ccn23)c1 [Compound 1-37, 1-[3-(7-{[3-(Tetrahydro-pyran-4-ylamino)-propoxyimino]-methyl}-imidazo[1,2-a]pyridin-3-yl)-phenyl]-3-(2,2,2-trifluoro-ethyl)-urea]",0.27 µM,0.028 µM,3500 nM,,,,43%,
"O=C(NCC(F)(F)F)Nc1cccc(-c2cnc3cc(C=NOCC4CC4)ccn23)c1 [Compound 1-11, 1-{3-[7-(Cyclopropylmethoxyimino-methyl)-imidazo[1,2-a]pyridin-3-yl]-phenyl}-3-(2,2,2-trifluoro-ethyl)-urea]",,0.027 µM,600 nM,46%,,,,880 nM
"O=C(NCC(F)(F)F)Nc1cccc(-c2cnc3cc(C=NOCc4ccccn4)ccn23)c1 [Compound 1-6, 1-(3-{7-[(Pyridin-2-ylmethoxyimino)-methyl]-imidazo[1,2-a]pyridin-3-yl}-phenyl)-3-(2,2,2-trifluoro-ethyl)-urea]",0.48 µM,0.013 µM,,,,,,
"COCCN(C)CCON=Cc1ccn2c(-c3cccc(NC(=O)NCC(F)(F)F)c3)cnc2c1 [Compound 1-40, 1-{3-[7-({2-[(2-Methoxy-ethyl)-methyl-amino]-ethoxyimino}-methyl)-imidazo[1,2-a]pyridin-3-yl]-phenyl}-3-(2,2,2-trifluoro-ethyl)-urea]",0.72 µM,0.028 µM,,,,,,
"Cn1cncc1CO/N=C/c1ccn2c(-c3cccc(NC(=O)NCC(F)(F)F)c3)cnc2c1 [Compound 1-20, 1-(3-{7-[(3-Methyl-3H-imidazol-4-ylmethoxyimino)-methyl]-imidazo[1,2-a]pyridin-3-yl}-phenyl)-3-(2,2,2-trifluoro-ethyl)-urea]",0.36 µM,0.0071 µM,,,,,,
CO/N=C(\C)c1ccn2c(-c3cccc(NC(=O)NCC(F)(F)F)c3)cnc2c1 [Compound 1-22],0.092 µM,0.0051 µM,,,,,,
"Cc1nc(CON=Cc2ccn3c(-c4cccc(NC(=O)NCC(F)(F)F)c4)cnc3c2)cs1 [Compound 1-9, 1-(3-{7-[(2-Methyl-thiazol-4-ylmethoxyimino)-methyl]-imidazo[1,2-a]pyridin-3-yl}-phenyl)-3-(2,2,2-trifluoro-ethyl)-urea]",0.68 µM,0.014 µM,,,,,,

# Second part, led by results:
IC50 (VEGFR2),IC50 (FGFR3),GI50 (Ba/F3-TEL-FGFR3 cells),"inhibition at 1 µM (VEGFR2; 1 h, % I at 1 μM)",BaF3-TEL-FGFR3 prolif (μM) (Ba/F3-TEL-FGFR3 cells; % at 3.00 μM),Compound,inhibition at 3 µM [1],inhibition at 10 µM [1],IC50 [1]
0.5 µM,0.016 µM,310 nM,,,"CN(C)S(=O)(=O)N1CCN(CCCO/N=C/c2ccn3c(-c4cccc(NC(=O)NCC(F)(F)F)c4)cnc3c2)CC1 [Compound 1-63, 4-{3-[1-(3-{3-[3-(2,2,2-Trifluoro-ethyl)-ureido]-phenyl}-imidazo[1,2-a]pyridin-7-yl)-meth-(E)-ylideneaminooxy]-propyl}-piperazine-1-sulfonic acid dimethylamide]",45%,,
0.73 µM,0.026 µM,4900 nM,,,"CS(=O)(=O)CCNCCON=Cc1ccn2c(-c3cccc(NC(=O)NCC(F)(F)F)c3)cnc2c1 [Compound 1-52, 1-[3-(7-{[2-(2-Methanesulfonyl-ethylamino)-ethoxyimino]-methyl}-imidazo[1,2-a]pyridin-3-yl)-phenyl]-3-(2,2,2-trifluoro-ethyl)-urea]",,25%,
0.051 µM,0.0035 µM,110 nM,,,"C/C(=N\OCCO)c1ccn2c(-c3cccc(NC(=O)NCC(F)(F)F)c3)cnc2c1 [Compound 1-62, 1-[3-(7-{1-2-Hydroxy-ethoxyimino-ethyl}-imidazo[1,2-a]pyridin-3-yl)-phenyl]-3-(2,2,2-trifluoro-ethyl)-urea]",,45%,
0.47 µM,0.029 µM,250 nM,,,"CN(C)CCON=Cc1ccn2c(-c3cccc(NC(=O)NCC(F)(F)F)c3)cnc2c1 [Compound 1-57, 1-(3-{7-[(2-Dimethylamino-ethoxyimino)-methyl]-imidazo[1,2-a]pyridin-3-yl}-phenyl)-3-(2,2,2-trifluoro-ethyl)-urea]",30%,,
1.2 µM,0.03 µM,500 nM,,,"CC(C)Oc1cc(NC(=O)NCC(F)(F)F)cc(-c2cnc3cc(/C(=N\OCCO)C4CC4)ccn23)c1 [Compound 1-64, 1-[3-(7-{Cyclopropyl-[(Z)-2-hydroxyethoxyimino]-methyl}-imidazo[1,2-a]pyridin-3-yl)-5-isopropoxy-phenyl]-3-(2,2,2-trifluoro-ethyl)-urea]",,,
0.34 µM,0.029 µM,780 nM,,,"CN(CCO)CCON=Cc1ccn2c(-c3cccc(NC(=O)NCC(F)(F)F)c3)cnc2c1 [Compound 1-58, 1-{3-[7-({2-[(2-Hydroxy-ethyl)-methyl-amino]-ethoxyimino}-methyl)-imidazo[1,2-a]pyridin-3-yl]-phenyl}-3-(2,2,2-trifluoro-ethyl)-urea]",,55%,
0.4 µM,0.023 µM,600 nM,,,"COCCN1CCC(CCON=Cc2ccn3c(-c4cccc(NC(=O)NCC(F)(F)F)c4)cnc3c2)CC1 [Compound 1-48, 1-{3-[7-({2-[1-(2-Methoxy-ethyl)-piperidin-4-yl]-ethoxyimino}-methyl)-imidazo[1,2-a]pyridin-3-yl]-phenyl}-3-(2,2,2-trifluoro-ethyl)-urea]",,,1800 nM
0.33 µM,0.024 µM,,,42.0% at,"O=C(NCC(F)(F)F)Nc1cccc(-c2cnc3cc(C=NOCCC4CCNCC4)ccn23)c1 [Compound 1-59, 1-(3-{7-[(2-Piperidin-4-yl-ethoxyimino)-methyl]-imidazo[1,2-a]pyridin-3-yl}-phenyl)-3-(2,2,2-trifluoro-ethyl)-urea]",,11%,
0.88 µM,0.033 µM,2200 nM,,,"CN1CCN(C(=O)CCON=Cc2ccn3c(-c4cccc(NC(=O)NCC(F)(F)F)c4)cnc3c2)CC1 [Compound 1-51, 1-[3-(7-{[3-(4-Methyl-piperazin-1-yl)-3-oxo-propoxyimino]-methyl}-imidazo[1,2-a]pyridin-3-yl)-phenyl]-3-(2,2,2-trifluoro-ethyl)-urea]",,27%,
0.059 µM,0.0038 µM,,,,"C/C(=N\OCCCN1CCOCC1)c1ccn2c(-c3cccc(NC(=O)NCC(F)(F)F)c3)cnc2c1 [Compound 1-44, 1-[3-(7-{1-3-Morpholin-4-yl-propoxyimino-ethyl}-imidazo[1,2-a]pyridin-3-yl)-phenyl]-3-(2,2,2-trifluoro-ethyl)-urea]",,,
